Where a name gives a salt, the structure may show the parent alone. Read-outs that look alike come from different tables or passages of the source.

Data set [1] concerns the target T1, human 5-hydroxytryptamine2C (h5HT2C) receptor (Homo sapiens, UniProt P28335).
T1 construct: expressed in transfected cells; host or cells: CHO (Chinese Hamster Ovary) cells; membrane preparation
T1 sequence (P28335 33-458): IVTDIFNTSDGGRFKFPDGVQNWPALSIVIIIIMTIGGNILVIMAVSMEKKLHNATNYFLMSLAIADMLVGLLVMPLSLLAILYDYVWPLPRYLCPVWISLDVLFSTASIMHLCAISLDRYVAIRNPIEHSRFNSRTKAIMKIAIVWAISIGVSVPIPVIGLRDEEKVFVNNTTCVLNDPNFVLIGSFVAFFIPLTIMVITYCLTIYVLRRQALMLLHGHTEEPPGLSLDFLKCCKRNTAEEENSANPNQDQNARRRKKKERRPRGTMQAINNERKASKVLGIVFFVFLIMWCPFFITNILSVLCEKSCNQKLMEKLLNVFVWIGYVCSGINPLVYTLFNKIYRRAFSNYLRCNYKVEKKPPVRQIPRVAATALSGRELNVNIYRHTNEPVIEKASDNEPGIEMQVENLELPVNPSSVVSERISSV
The data set is described as follows: 5HT2C receptor binding ([125I]DOI displacement, CHO cell membranes).

As a reminder, the melting point is the temperature, or range, at which the solid turns liquid. Turning to `c1cc2c3c(c1)CC1CCCC1N3CCNC2` (stereo not drawn) (as salt: HCl) [Example 1, trans isomer, Trans-1,2,3,4,8,8a,9,10,11,11a-decahydro-cyclopenta[b][1,4]diazapino[6,7,1-ij]quinoline], the melting point was 190 °C (dec.).

As for `c1cc2c3c(c1)C[C@@H]1CCC[C@@H]1N3CCNC2` (relative stereo) (as salt: HCl) [Example 1, cis isomer, Cis 1,2,3,4,8,8a,9,10,11,11a-decahydro-cyclopenta[b][1,4]diazepino[6,7,1-ij]quinoline], the melting point is 180 to 190 °C (dec.).

Compound `c1cc2c3c(c1)C[C@H]1CCCC[C@H]1N3CCNC2` (relative stereo) (as salt: HCl) [Example 2, cis isomer, (Cis)-1,2,3,4,8a,9,10,11,12,12a,-decahydro-8H-[1,4]diazepino[6,7,1-de]acridine] yielded a melting point of 150 to 155 °C.

The Ki is a measure of affinity in units of concentration, obtained from inhibition or displacement. `c1cc2c3c(c1)C[C@@H]1CCC[C@@H]1N3CCNC2` (relative stereo) [Example 1, cis isomer, Cis 1,2,3,4,8,8a,9,10,11,11a-decahydro-cyclopenta[b][1,4]diazepino[6,7,1-ij]quinoline] displayed a Ki in data set [1] of 118 nM.

On to `c1cc2c3c(c1)C[C@H]1CCCC[C@H]1N3CCNC2` (relative stereo) [Example 2, cis isomer, (Cis)-1,2,3,4,8a,9,10,11,12,12a,-decahydro-8H-[1,4]diazepino[6,7,1-de]acridine], for which, in data set [1], the affinity corresponds to a Ki of 511 nM.

The compound `c1cc2c3c(c1)CC1CCCC1N3CCNC2` (stereo not drawn) [Example 1, trans isomer, Trans-1,2,3,4,8,8a,9,10,11,11a-decahydro-cyclopenta[b][1,4]diazapino[6,7,1-ij]quinoline] came in with a Ki in data set [1] of 71 nM.

Turning to `c1cc2c3c(c1)CC1CCCCC1N3CCNC2` (stereo not drawn) [Example 2, trans isomer, (Trans)-1,2,3,4,8a,9,10,11,12,12a,-decahydro-8H-[1,4]diazepino[6,7,1-de]acridine], the melting point is 95 °C. Further, the Ki in data set [1] was 513 nM.

In the case of `CSc1ccc2c(c1)C(N1CCN(C)CC1)Cc1ccccc1S2` (stereo not shown) [Methiothepin, reference compound], in data set [1] ([125I]DOI binding, CHO membranes expressing h5HT2C, read-out: Ki (95% confidence interval), reference compounds), the Ki is 4.6 nM.

The Kd is the constant that tells how readily two partners part at equilibrium. On to `COc1cc(CC(C)N)c(OC)cc1I` (stereo not shown) [[^125I] DOI, reference compound], for which the Kd in data set [1] (read-out: dissociation constant, KD of [125I] DOI at the human serotonin 5HT2C receptor, saturation binding with increasing concentrations of [125I] DOI) turned out to be 0.4 nM.

Source of the values: patent US7071185B2, “1,2,3,4,7,8-hexahydro-6H-[1,4]diazepino[6,7,1-ij]quinoline derivatives as antipsychotic and antiobesity agents” (Wyeth, priority 2002, dated 2006).
